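Cultured in 96-well plates, cells were exposed to test compound for 48 hours across five concentrations. GI50 is the concentration that inhibits growth by half.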 Active and inactive are the calls of the source. No stated cut-off is given here; in the data, active = GI50 up to about 1.1 µM and inactive = higher.
Columns and labels:
Assay in all cases: NCI anticancer screen, dose series, 48 h
NCI-H460 = system: NCI-H460
KM12 = system: KM12
ACHN = system: ACHN
LOX IMVI = system: LOX IMVI
RXF 393 = system: RXF 393
TK-10 = system: TK-10
CAKI-1 = system: CAKI-1
UACC-62 = system: UACC-62
SF-539 = system: SF-539
HCT-116 = system: HCT-116
EKVX = system: EKVX
OVCAR-4 = system: OVCAR-4
MCF7 = system: MCF7
COLO 205 = system: COLO 205
Malme-3M = system: Malme-3M
A498 = system: A498
HT-29 = system: HT-29
786-0 = system: 786-0
U-251 = system: U-251
CCRF-CEM = system: CCRF-CEM

Measured: GI50

NCCc1c[nH]c2ccc(OC(=O)C(=O)O)cc12
inactive: NCI-H460 > 100 µM | KM12 > 100 µM | ACHN > 100 µM | LOX IMVI > 100 µM | RXF 393 > 100 µM | TK-10 > 100 µM | CAKI-1 > 100 µM | UACC-62 > 100 µM | SF-539 > 100 µM | HCT-116 > 100 µM | EKVX > 100 µM | OVCAR-4 > 100 µM | MCF7 > 100 µM | COLO 205 > 100 µM | Malme-3M > 100 µM | A498 > 100 µM | HT-29 > 100 µM | 786-0 > 100 µM | U-251 > 100 µM | CCRF-CEM > 100 µM

CC1C(c2ccc3c(c2)OCO3)c2cc3c(cc2OC1N1CCOCC1)OCO3 (stereo not given)
inactive: NCI-H460 29.2 µM | KM12 20.5 µM | ACHN 32.6 µM | LOX IMVI 20.9 µM | RXF 393 20.4 µM | TK-10 29.1 µM | CAKI-1 15.2 µM | UACC-62 20.3 µM | SF-539 18.3 µM | HCT-116 16 µM | EKVX 37.3 µM | OVCAR-4 28.8 µM | MCF7 20.8 µM | COLO 205 21.1 µM | Malme-3M 28.8 µM | A498 22.4 µM | HT-29 28.7 µM | 786-0 31.6 µM | U-251 19.1 µM | CCRF-CEM 19 µM

O=[N+]([O-])C(C(Cl)=C(Cl)Cl)=C(n1cncn1)n1cncn1
inactive: NCI-H460 > 75.5 µM | KM12 50.4 µM | ACHN 19.3 µM | LOX IMVI 17.7 µM | RXF 393 14.6 µM | TK-10 25.7 µM | CAKI-1 5.47 µM | UACC-62 39.9 µM | SF-539 19 µM | HCT-116 16.1 µM | EKVX 24.3 µM | OVCAR-4 24.4 µM | MCF7 25.6 µM | COLO 205 13.7 µM | Malme-3M 16.4 µM | A498 > 100 µM | HT-29 19 µM | 786-0 18.6 µM | U-251 34.6 µM | CCRF-CEM 3.37 µM
